{"source": "patent US4386093A", "about": "(The United States of America as represented by the …, priority 1981, dated 1983)", "key": {"poliovirus": {"system": "poliovirus", "type": "cell-based"}, "[1]": {"system": "calf intestinal deaminase", "test": "Deamination by calf intestinal deaminase", "type": "biochemical"}, "adenosine kinase": {"system": "adenosine kinase", "test": "Phosphorylation by adenosine kinase", "type": "biochemical"}, "herpes simplex type I": {"system": "herpes simplex type I", "test": "Herpes I plaque formation in mouse L cells", "type": "cell-based", "details": "72 h, day 3"}, "[2]": {"test": "Cell number in herpes I plaque assay", "type": "cell-based", "details": "mouse L cells"}, "HL-23 C type virus [3]": {"system": "HL-23 C type virus", "test": "HL-23 virus production in NRKB/HL23 cells", "type": "cell-based", "details": "HL2/3, 72 h", "experimental": "on day 3; virus production by HL23 was measured with NRKB/HL23 cells on\nday 3; oncogenic transformation by HL23 was assayed by infecting normal"}, "[4]": {"test": "Cell number in HL-23 virus production assay", "type": "cell-based", "details": "rat, nrkb/hl23 cells, read-out: % Control Cell Number"}, "HL-23 C type virus [5]": {"system": "HL-23 C type virus", "test": "HL-23 foci formation (oncogenic transformation) in normal rat kidney cells", "type": "cell-based", "details": "NRK 153 Cl 7 cells, day 5"}, "[6]": {"test": "Cell number in HL-23 foci formation assay", "type": "cell-based", "details": "rat, nrk 153 cl 7 cells, read-out: % Control Cell Number"}, "vaccinia virus": {"system": "vaccinia virus", "test": "microbe, parasite or virus in culture", "type": "cell-based"}, "[7]": {"system": "S-adenosylhomocysteine hydrolase"}, "[8]": {"details": "1 μM; vaccinia assay"}, "[9]": {"system": "neutrophilis or macrophage cell lines"}, "in vitro": {"test": "in vitro", "details": "vaccinia assay host cells"}, "[10]": {"details": "listed as (±)3-Deazaaristeromycin"}, "[11]": {"details": "read-out: Ki, S-adenosylhomocysteine hydrolase"}}, "note": "Where two headings read alike, the source gives them in different places."}
{"smiles": "Nc1nccc2c1ncn2[C@@H]1O[C@H](CO)[C@@H](O)[C@H]1O", "note": "[3-deazaadenosine, reference compound]", "values": [{"measurement": "Inhibition of replication of poliovirus", "setting": "poliovirus", "result": "fail to inhibit"}]}
{"smiles": "Nc1nccc2c1ncn2[C@@H]1C[C@H](CO)[C@@H](O)[C@H]1O", "note": "(relative stereo) [(±)3-deazaaristeromycin, (±)-4-amino-1-[(1α, 2β, 3β, 4α)-2,3-dihydroxy-4-(hydroxymethyl)-cyclopentyl]imidazo[4,5-c]pyridine]", "values": [{"measurement": "Deamination", "setting": "[1]; listed as 3-Deaza-Ari", "result": "not deaminated"}, {"measurement": "Deamination", "setting": "[1]; [10]", "result": "not subject to deamination or phosphorylation"}, {"measurement": "Phosphorylation", "setting": "adenosine kinase; listed as 3-Deaza-Ari", "result": "not phosphorylated"}, {"measurement": "Phosphorylation", "setting": "adenosine kinase; [10]", "result": "not subject to deamination or phosphorylation"}, {"measurement": "inhibition at 10 µM", "setting": "herpes simplex type I; 10 uM", "result": 60, "unit": "%"}, {"measurement": "inhibition at 20 µM", "setting": "herpes simplex type I; 20 uM", "result": 97, "unit": "%"}, {"measurement": "inhibition at 30 µM", "setting": "herpes simplex type I; 30 uM", "result": "> 99", "unit": "%"}, {"measurement": "inhibition at 40 µM", "setting": "herpes simplex type I; 40 uM", "result": 99.3, "unit": "%"}, {"measurement": "inhibition at 50 µM", "setting": "herpes simplex type I; 50 uM", "result": 99.3, "unit": "%"}, {"measurement": "inhibition at 60 µM", "setting": "herpes simplex type I; 60 uM", "result": 100, "unit": "%"}, {"measurement": "inhibition at 70 µM", "setting": "herpes simplex type I; 70 uM", "result": 100, "unit": "%"}, {"measurement": "activity at 72 h, 10 µM", "setting": "[2]; 10 uM, read-out: % Control Cell Number", "result": 100, "unit": "%"}, {"measurement": "activity at 72 h, 20 µM", "setting": "[2]; 20 uM, read-out: % Control Cell Number", "result": 95, "unit": "%"}, {"measurement": "activity at 72 h, 30 µM", "setting": "[2]; 30 uM, read-out: % Control Cell Number", "result": 95, "unit": "%"}, {"measurement": "activity at 72 h, 40 µM", "setting": "[2]; 40 uM, read-out: % Control Cell Number", "result": 91, "unit": "%"}, {"measurement": "activity at 72 h, 50 µM", "setting": "[2]; 50 uM, read-out: % Control Cell Number", "result": 95, "unit": "%"}, {"measurement": "activity at 72 h, 60 µM", "setting": "[2]; 60 uM, read-out: % Control Cell Number", "result": 91, "unit": "%"}, {"measurement": "activity at 72 h, 70 µM", "setting": "[2]; 70 uM, read-out: % Control Cell Number", "result": 82, "unit": "%"}, {"measurement": "cytotoxicity", "setting": "[2]; 20-30 μM, read-out: Reduction in the cell number (cytotoxicity)", "result": "≤ 5", "unit": "%"}, {"measurement": "inhibition at 0.25 µM", "setting": "HL-23 C type virus [3]; 0.25 uM, day 3", "result": 68, "unit": "%"}, {"measurement": "inhibition at 1 µM", "setting": "HL-23 C type virus [3]; 1.00 uM, day 3", "result": 86, "unit": "%"}, {"measurement": "inhibition at 0.5 µM", "setting": "HL-23 C type virus [3]; read-out: % Inhibition, HL-23 virus production, 0.50 uM, day 3", "result": "> 85", "unit": "%"}, {"measurement": "activity at 72 h, 0.25 µM", "setting": "[4]; 0.25 uM", "result": 100, "unit": "%"}, {"measurement": "activity at 72 h, 0.5 µM", "setting": "[4]; 0.50 uM", "result": 88, "unit": "%"}, {"measurement": "activity at 72 h, 1 µM", "setting": "[4]; 1.00 uM", "result": 75, "unit": "%"}, {"measurement": "% Inhibition, HL-23 foci formation", "setting": "HL-23 C type virus [5]; 2.00 uM, 2 µM", "result": 92, "unit": "%"}, {"measurement": "inhibition at 0.25 µM", "setting": "HL-23 C type virus [5]; HL2/3, 120 h, 0.25 uM", "result": 44, "unit": "%"}, {"measurement": "inhibition at 0.5 µM", "setting": "HL-23 C type virus [5]; HL2/3, 120 h, 0.50 uM", "result": 44, "unit": "%"}, {"measurement": "inhibition at 1 µM", "setting": "HL-23 C type virus [5]; HL2/3, 120 h, 1.00 uM", "result": 76, "unit": "%"}, {"measurement": "inhibition at 2 µM", "setting": "HL-23 C type virus [5]; HL2/3, 120 h, 2.00 uM", "result": "~96", "unit": "%"}, {"measurement": "inhibition at 4 µM", "setting": "HL-23 C type virus [5]; HL2/3, 120 h, 4.00 uM", "result": 99, "unit": "%"}, {"measurement": "activity at 120 h, 0.25 µM", "setting": "[6]; 0.25 uM", "result": 100, "unit": "%"}, {"measurement": "activity at 120 h, 0.5 µM", "setting": "[6]; 0.50 uM", "result": 96, "unit": "%"}, {"measurement": "activity at 120 h, 1 µM", "setting": "[6]; 1.00 uM", "result": 81, "unit": "%"}, {"measurement": "activity at 120 h, 2 µM", "setting": "[6]; 2.00 uM", "result": 71, "unit": "%"}, {"measurement": "activity at 120 h, 4 µM", "setting": "[6]; 4.00 uM", "result": 53, "unit": "%"}, {"measurement": "% Inhibition, Vaccinia plaque formation", "setting": "vaccinia virus; 1.0 uM", "result": 99.2, "unit": "%"}, {"measurement": "inhibition at 0.5 µM", "setting": "vaccinia virus; Orthopoxvirus vaccinia, read-out: % Inhibition, Vaccinia plaque formation, 0.5 uM", "result": 84, "unit": "%"}, {"measurement": "inhibition at 1 µM", "setting": "vaccinia virus; Orthopoxvirus vaccinia, read-out: % Inhibition, Vaccinia plaque formation, 1.0 uM", "result": "> 99", "unit": "%"}, {"measurement": "inhibition at 2 µM", "setting": "vaccinia virus; Orthopoxvirus vaccinia, read-out: % Inhibition, Vaccinia plaque formation, 2.0 uM", "result": 99.6, "unit": "%"}, {"measurement": "inhibition at 4 µM", "setting": "vaccinia virus; Orthopoxvirus vaccinia, read-out: % Inhibition, Vaccinia plaque formation, 4.0 uM", "result": 99.8, "unit": "%"}, {"measurement": "Inhibition of replication of poliovirus", "setting": "poliovirus", "result": "fail to inhibit"}, {"measurement": "Irreversible inhibition of the enzyme", "setting": "[7]", "result": "negligible or very little irreversible inhibition"}, {"measurement": "Ki", "setting": "[7]; read-out: Ki, AdoHcy hydrolase", "result": 3, "unit": "µM"}, {"measurement": "Ki", "setting": "[7]; [11]", "result": 3, "unit": "µM"}, {"measurement": "cytotoxicity", "setting": "[8]", "result": "without any cytotoxicity"}, {"measurement": "Inhibition of chemotaxis", "setting": "[9]", "result": "does not inhibit"}, {"measurement": "activity at 0.5 µM", "setting": "in vitro", "result": 120, "unit": "%"}, {"measurement": "activity at 1 µM", "setting": "in vitro", "result": 144, "unit": "%"}, {"measurement": "activity at 2 µM", "setting": "in vitro", "result": 111, "unit": "%"}, {"measurement": "activity at 4 µM", "setting": "in vitro", "result": 111, "unit": "%"}]}
{"smiles": "Nc1ncnc2c1ncn2[C@@H]1C[C@H](CO)[C@@H](O)[C@H]1O", "note": "(relative stereo) [(±)aristeromycin, reference compound]", "values": [{"measurement": "Ki", "setting": "[7]; [11]", "result": 0.001, "unit": "µM"}]}
